Results from patent US11040027B2, “Protein kinase inhibitors for promoting liver regeneration or reducing or preventing hepatocyte death” (HEPAREGENIX GMBH, priority 2017, dated 2021).

Key:
[1] = molecular target: BRaf (Homo sapiens, UniProt P15056); test: KINOMEscan competition binding assay, selectivity BRaf versus MKK4; conditions: Test conc. 0.1 μM; ratio of percent of control; N/E* per footnote
Experimental: The assay was performed by combining three components: DNA-tagged kinase; immobilized ligand; and a test compound. The ability of the test compound to compete with the immobilized ligand was measured via quantitative PCR of the DNA tag. The technology is described in detail in Fabian, M. A. et al. A small molecule-kinase interaction map for clinical kinase inhibitors. Nat. […] Nat.
The test compounds were provided as 10 mM stock solutions. The test solutions at indicated final concentrations were prepared at DiscoverX.

[2] = molecular target: T1, MKK7 (Homo sapiens, UniProt O14733); test: KINOMEscan competition binding assay, selectivity MKK7 versus MKK4; conditions: Test conc. 0.1 μM; ratio of percent of control; N/E* per footnote
T1 sequence (O14733 1-419): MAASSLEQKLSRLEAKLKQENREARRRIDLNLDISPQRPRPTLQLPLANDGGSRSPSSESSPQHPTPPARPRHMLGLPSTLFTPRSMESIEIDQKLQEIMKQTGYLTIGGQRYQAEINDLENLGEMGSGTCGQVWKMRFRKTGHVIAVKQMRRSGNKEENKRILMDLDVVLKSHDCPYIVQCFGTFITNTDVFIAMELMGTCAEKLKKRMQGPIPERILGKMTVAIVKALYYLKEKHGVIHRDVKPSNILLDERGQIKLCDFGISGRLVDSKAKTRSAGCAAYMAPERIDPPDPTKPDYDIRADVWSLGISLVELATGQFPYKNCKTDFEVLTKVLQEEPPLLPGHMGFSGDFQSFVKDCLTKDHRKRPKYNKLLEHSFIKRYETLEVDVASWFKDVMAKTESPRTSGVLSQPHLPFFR
Experimental: (§4) For investigation of the affinity to MKK4, MKK7 and JNK1, the kinases were produced in HEK-293 cells and subsequently tagged with DNA for qPCR detection. […] The liganded beads were blocked with excess biotin and washed with blocking buffer (SEABLOCK™ (Pierce), 1% BSA, 0.05% TWEEN®20, 1 mM DTT) to remove unbound ligand and to reduce nonspecific binding. […] All reactions were performed in polystyrene 96-well plates in a final volume of 0.135 mL. […] The kinase concentration in the eluates was measured by qPCR.

[3] = molecular target: JNK1 (Homo sapiens, UniProt P45983); test: KINOMEscan competition binding assay, selectivity JNK1 versus MKK4; conditions: ratio of percent of control
Chain of JNK1 (P45983 1-384 isoform P45983-2): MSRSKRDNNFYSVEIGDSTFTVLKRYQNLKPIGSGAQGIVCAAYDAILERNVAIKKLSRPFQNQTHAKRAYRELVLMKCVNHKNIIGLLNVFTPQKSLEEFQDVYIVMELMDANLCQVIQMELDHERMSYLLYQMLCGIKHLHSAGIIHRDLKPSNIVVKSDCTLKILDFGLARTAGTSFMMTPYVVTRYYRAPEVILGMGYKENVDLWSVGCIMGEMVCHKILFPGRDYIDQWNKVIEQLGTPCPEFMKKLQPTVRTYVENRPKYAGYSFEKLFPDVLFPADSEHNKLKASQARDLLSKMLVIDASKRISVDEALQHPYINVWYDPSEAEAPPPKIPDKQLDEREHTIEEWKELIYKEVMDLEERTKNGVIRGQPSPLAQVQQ
Experimental: as §4

[4] = molecular target: T2, MEKK2 (Homo sapiens, UniProt Q9Y2U5); test: Radiometric protein kinase assay, MEKK2; assay type: biochemical; conditions: substrate Casein, ATP 0.2 μM; read-out: MEKK2 (potency derived from IC50-values)
T2 construct: purchased ProQinase 0583-0000-1
T2 sequence (Q9Y2U5 1-619): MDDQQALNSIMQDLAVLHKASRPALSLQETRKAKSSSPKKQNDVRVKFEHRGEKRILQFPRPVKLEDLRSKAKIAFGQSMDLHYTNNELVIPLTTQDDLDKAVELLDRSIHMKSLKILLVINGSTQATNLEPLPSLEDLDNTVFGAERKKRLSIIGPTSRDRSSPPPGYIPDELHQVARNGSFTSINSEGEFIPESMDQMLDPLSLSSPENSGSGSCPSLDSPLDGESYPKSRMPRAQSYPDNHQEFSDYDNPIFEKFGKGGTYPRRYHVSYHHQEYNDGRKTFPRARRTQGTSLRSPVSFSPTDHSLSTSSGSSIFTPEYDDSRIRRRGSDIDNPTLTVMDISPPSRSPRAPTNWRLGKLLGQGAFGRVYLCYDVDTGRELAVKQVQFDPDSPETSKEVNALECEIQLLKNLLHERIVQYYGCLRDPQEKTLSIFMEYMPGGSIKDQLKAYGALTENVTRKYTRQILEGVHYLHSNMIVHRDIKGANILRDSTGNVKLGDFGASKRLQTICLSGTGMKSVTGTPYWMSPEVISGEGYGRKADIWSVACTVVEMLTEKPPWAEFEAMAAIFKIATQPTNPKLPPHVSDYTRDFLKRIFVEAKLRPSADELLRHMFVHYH
Experimental: (§1) A radiometric protein kinase assay was used for measuring the kinase activity of the respective protein kinases. All kinase assays were performed in 96-well polypropylene plates. After the reactions were stopped, the assay mixtures were transferred to 96-well MSFC filter-plates (Millipore). The reaction mix was passed through the filter membrane by aspiration, the membrane was washed 3 times with 150 mM H3PO4, once with ethanol, dried and liquid scintillation cocktail was added. Radioactivity was determined by counting of the samples in a Microbeta multiwell scintillation counter (Wallac).
(§2) b) Single Kinases • 20 μl standard assay buffer • 5 μl compound in 10% DMSO • 20 μl enzyme-substrate mix • 10 μl of substrate solution
(§3) The reaction cocktails were incubated at 30° C. for 30 minutes.

[5] = molecular target: T3, MKK4 (Homo sapiens, UniProt P45985); test: KINOMEscan competition binding assay, MKK4; conditions: read-out: Potency MKK4 (derived from % of control values, PoC)
T3 sequence (P45985 84-399): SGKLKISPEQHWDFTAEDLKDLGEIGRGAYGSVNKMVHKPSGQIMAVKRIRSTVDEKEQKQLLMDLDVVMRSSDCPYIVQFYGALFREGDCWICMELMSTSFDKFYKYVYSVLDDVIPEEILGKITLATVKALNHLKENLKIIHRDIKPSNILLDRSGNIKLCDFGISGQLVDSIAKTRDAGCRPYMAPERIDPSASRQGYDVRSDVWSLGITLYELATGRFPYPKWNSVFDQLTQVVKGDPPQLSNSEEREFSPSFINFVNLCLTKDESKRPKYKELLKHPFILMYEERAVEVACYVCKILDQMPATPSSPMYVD
Experimental: as §4

[6] = molecular target: T4, MKK4 active (Homo sapiens, UniProt P45985); test: Radiometric protein kinase assay, MKK4 active; assay type: biochemical; conditions: substrate JNK1 KRKR, ATP 0.2 μM, read-out: MKK4 (potency derived from IC50-values)
T4 construct: purchased ProQinase 0948-0000-1
T4 sequence (P45985 1-399): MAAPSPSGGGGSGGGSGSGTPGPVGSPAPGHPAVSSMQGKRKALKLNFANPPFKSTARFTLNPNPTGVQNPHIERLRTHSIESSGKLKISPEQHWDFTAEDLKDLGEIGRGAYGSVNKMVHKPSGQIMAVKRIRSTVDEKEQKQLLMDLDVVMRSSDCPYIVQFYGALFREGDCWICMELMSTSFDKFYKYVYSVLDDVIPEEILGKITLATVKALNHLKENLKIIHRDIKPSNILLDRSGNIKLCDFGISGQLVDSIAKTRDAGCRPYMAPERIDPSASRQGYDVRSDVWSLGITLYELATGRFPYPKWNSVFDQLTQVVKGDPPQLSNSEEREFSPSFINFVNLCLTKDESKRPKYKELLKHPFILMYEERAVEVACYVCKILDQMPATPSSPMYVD
Experimental: as §1, §2, §3

[7] = Test conc 0.1 μM, N/E* = PoC for JNK1 = 100

Chain of BRaf (P15056 whole entry): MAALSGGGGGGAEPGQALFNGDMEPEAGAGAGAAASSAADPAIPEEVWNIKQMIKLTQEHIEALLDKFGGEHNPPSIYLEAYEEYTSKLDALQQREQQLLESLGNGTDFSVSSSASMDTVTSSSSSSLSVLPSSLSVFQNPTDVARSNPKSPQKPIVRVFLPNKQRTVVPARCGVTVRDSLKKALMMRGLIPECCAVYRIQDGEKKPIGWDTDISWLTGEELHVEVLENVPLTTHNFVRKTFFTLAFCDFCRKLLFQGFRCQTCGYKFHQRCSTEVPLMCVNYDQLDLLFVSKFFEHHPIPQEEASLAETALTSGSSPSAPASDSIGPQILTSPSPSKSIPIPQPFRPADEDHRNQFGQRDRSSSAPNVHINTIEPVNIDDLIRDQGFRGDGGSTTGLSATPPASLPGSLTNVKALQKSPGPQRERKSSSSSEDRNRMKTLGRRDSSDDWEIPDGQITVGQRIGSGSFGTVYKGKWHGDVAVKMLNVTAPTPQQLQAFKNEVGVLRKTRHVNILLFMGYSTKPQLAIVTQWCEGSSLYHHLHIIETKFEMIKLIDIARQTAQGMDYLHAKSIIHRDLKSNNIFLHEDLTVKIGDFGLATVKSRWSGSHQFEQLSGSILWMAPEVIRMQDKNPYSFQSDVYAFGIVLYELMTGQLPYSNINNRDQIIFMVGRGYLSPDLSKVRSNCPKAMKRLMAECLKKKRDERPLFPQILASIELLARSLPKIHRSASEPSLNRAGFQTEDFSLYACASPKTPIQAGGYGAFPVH

| SMILES | Selectivity BRaf/MKK4 [1] | Selectivity MKK7/MKK4 [2] | Selectivity JNK1/MKK4 ([3]; Test conc 10 μM) | IC50 [4] [µM] | remaining binding at 0.1 µM [5] [%] | IC50 [6] [µM] | Selectivity JNK1/MKK4 [3, 7] |
| --- | --- | --- | --- | --- | --- | --- | --- |
| CCCS(=O)(=O)Nc1ccc(F)c(C(=O)c2c[nH]c3ncc(-c4ccc(F)cc4C)cc23)c1F [Example 12, N-(2,4-Difluoro-3-(5-(4-fluoro-2-methylphenyl)-1H-pyrrolo[2,3-b]pyridine-3-carbonyl)phenyl)propane-1-sulfonamide] | 7.8 | 10 | >100 | > 10 | 10 to 30 | 0.5 to 1 |  |
| CC(C)c1ccc(-c2cnc3[nH]cc(C(=O)c4cccc(NS(C)(=O)=O)c4F)c3c2)cc1 [Example 45] | N/E* (PoC for JNK1 = 100) | N/E* (PoC for JNK1 = 100) |  | > 10 | > 30 | 1 to 10 | N/E* (PoC for JNK1 = 100) |
| CCCS(=N)(=O)Nc1ccc(F)c(C(=O)c2c[nH]c3ncc(-c4ccc(Cl)cc4)cc23)c1F (stereo not shown) [Example 112, N-(3-(5-(4-chlorophenyl)-1H-pyrrolo[2,3-b]pyridine-3-carbonyl)-2,4-difluorophenyl)propane-1-sulfonimidamide] |  |  |  | > 10 |  | 1 to 10 |  |
| CCCS(=O)(=O)Nc1ccc(F)c(C(=O)c2c[nH]c3ncc(-c4ccc(OC)cc4Cl)cc23)c1F [Example 39, N-(3-(5-(2-Chloro-4-methoxyphenyl)-1H-pyrrolo[2,3-b]pyridine-3-carbonyl)-2,4-difluorophenyl)propane-1-sulfonamide] |  |  |  | 1 to 10 |  |  |  |
| O=C(c1c(F)ccc(NS(=O)(=O)CCc2ccccc2)c1F)c1c[nH]c2ncc(-c3ccc(Cl)cc3)cc12 [Example 103, N-(3-(5-(4-chlorophenyl)-1H-pyrrolo[2,3-b]pyridine-3-carbonyl)-2,4-difluorophenyl)-2-phenylethane-1-sulfonamide] |  |  |  | < 0.5 |  |  |  |
| CCCS(=O)(=O)Nc1ccc(F)c(C(=O)c2c[nH]c3ncc(-c4cccc(N)c4)cc23)c1F [Example 19, N-(3-(5-(3-Aminophenyl)-1H-pyrrolo[2,3-b]pyridine-3-carbonyl)-2,4-difluorophenyl)propane-1-sulfonamide] |  |  |  | 1 to 10 |  |  |  |
| CCCS(=O)(=O)Nc1ccc(F)c(C(=O)c2c[nH]c3ncc(-c4cc5c(cc4Cl)OCO5)cc23)c1F [Example 43, N-(3-(5-(6-Chlorobenzo[d][1,3]dioxol-5-yl)-1H-pyrrolo[2,3-b]pyridine-3-carbonyl)-2,4-difluorophenyl)propane-1-sulfonamide] | 7.7 | 9.1 |  | 1 to 10 |  | < 0.5 | N/E* (PoC for JNK1 = 100) |
| CCCS(=O)(=O)Nc1ccc(F)c(C(=O)c2c[nH]c3ncc(-c4ccc(Cl)cc4)cc23)c1Cl [Example 86, N-(2-chloro-3-(5-(4-chlorophenyl)-1H-pyrrolo[2,3-b]pyridine-3-carbonyl)-4-fluorophenyl)propane-1-sulfonamide] |  |  |  | > 10 |  | 1 to 10 |  |
| CCCS(=O)(=O)Nc1ccc(F)c(C2(c3c[nH]c4ncc(-c5ccc(Cl)cc5)cc34)OCCO2)c1F [Example 104, N-(3-(2-(5-(4-chlorophenyl)-1H-pyrrolo[2,3-b]pyridin-3-yl)-1,3-dioxolan-2-yl)-2,4-difluorophenyl)propane-1-sulfonamide] |  |  |  | > 10 |  |  |  |
| COCCS(=O)(=O)Nc1ccc(F)c(C(=O)c2c[nH]c3ncc(-c4ccc(Cl)cc4)cc23)c1F [Example 32, N-(3-(5-(4-Chlorophenyl)-1H-pyrrolo[2,3-b]pyridine-3-carbonyl)-2,4-difluorophenyl)-2-methoxyethane-1-sulfonamide] |  |  |  | > 10 |  |  |  |
| CCCS(=O)(=O)Nc1ccc(F)c(C(=O)c2c[nH]c3ncc(-c4ccc(OCC)cc4Cl)cc23)c1F [Example 95, N-(3-(5-(2-chloro-4-ethoxy-phenyl)-1H-pyrrolo[2,3-b]pyridine-3-carbonyl)-2,4-difluorophenyl)-propane-1-sulfonamide] | 6.5 | N/E* (PoC for JNK1 = 100) |  |  | < 10 |  | 8.6 |
| CCCS(=O)(=O)Nc1ccc(F)c(C(=O)c2c[nH]c3ncc(-c4ccc(OC)cc4)cc23)c1F [Example 3, N-(2,4-Difluoro-3-(5-(4-methoxyphenyl)-1H-pyrrolo[2,3-b]pyridine-3-carbonyl)phenyl)propane-1-sulfonamide] | 1.0 | 10 | >400 |  | 10 to 30 |  |  |
| CCCS(=O)(=O)Nc1ccc(F)c(C(=O)c2c[nH]c3ncc(-c4ccc(F)c(F)c4)cc23)c1F [Example 16, N-(3-(5-(3,4-Difluorophenyl)-1H-pyrrolo[2,3-b]pyridine-3-carbonyl)-2,4-difluorophenyl)propane-1-sulfonamide] | 2.5 | 8 | >100 |  | > 30 |  |  |
| CCCS(=O)(=O)Nc1ccc(F)c(C(=O)c2c[nH]c3ncc(-c4ccc(OCC5CC5)cc4Cl)cc23)c1F [Example 100, N-(3-(5-(2-chloro-4-(cyclopropyl-methoxy)phenyl)-1H-pyrrolo[2,3-b]pyridine-3-carbonyl)-2,4-difluorophenyl)propane-1-sulfonamide] | 17 | N/E* (PoC for JNK1 = 100) |  |  | > 30 |  | 2.2 |
| CCCS(=O)(=O)Nc1ccc(F)c(C(=O)c2c[nH]c3ncc(-c4ccc(O)cc4Cl)cc23)c1F [Example 94, N-(3-(5-(2-chloro-4-hydroxy-phenyl)-1H-pyrrolo[2,3-b]pyridine-3-carbonyl)-2,4-difluoro-phenyl)propane-1-sulfonamide] | 20 | 22 |  |  | < 10 |  | 25 |
